Article PMC4805166, “Synthetic Cyclolipopeptides Selective against Microbial, Plant and Animal Cell Targets by Incorporation of D-Amino Acids or Histidine” (PLoS ONE, 2016)
Where “and” joins values, the source holds several entries; their conditions need not be identical. Equal values may be shown once. Read-outs that look alike come from different tables or passages of the source. Where a SMILES comes first, the peptide text is derived from it. [ ]: non-standard residue; d: D form. The star is where a group is joined. Hexanoyl = CCCCCC(=O)*; Butyryl = CCCC(=O)*

Key:
[1] = system: Fusarium oxysporum f. sp. lycopersici FOL 3 race 2; assay: MIC, antifungal growth inhibition; assay type: cell-based
Description: Fusarium oxysporum f. sp. lycopersici FOL 3 race 2 (ATCC 201829, American Type Culture Collection) was used as fungal pathogen. The strain was cultured on potato dextrose agar (PDA) plates (Difco) and microconidia were obtained after growth at 25°C. The concentration of conidia was determined using a hemacytometer and adjusted to 10^4 conidia mL^-1.
(§1) Lyophilized peptides were solubilized in sterile Milli-Q water to a final concentration of 1 mM and filter sterilized through a 0.22-μm pore filter. For minimum inhibitory concentration (MIC) assessment, dilutions of the compounds were made to obtain a stock concentration of […]. For antibacterial activity twenty microlitres of each dilution were mixed in a microtiter plate well with 20 μL of the corresponding suspension of the bacterial indicator, 160 μL of Trypticase Soy Broth (TSB) (BioMèrieux, France) to a total volume of 200 μL. For antifungal activity 20 μL of each stock solution were mixed in a microtiter plate well with 80 μL of the corresponding suspension of the fungal pathogen and 100 μL of double concentrated PDB to a total volume of 200 μL containing 0.003% w/v of choramphenicol.
(§2) Three replicates for each strain, compound and concentration were used. Microbial growth was determined by optical density measurement at 600 nm (Bioscreen C, Labsystem, Helsinki, Finland). For antibacterial activity microplates were incubated at 25°C with 20 sec shaking before hourly absorbance measurement for 48 h. For antifungal activity microplates were incubated at 20°C with 1 min shaking before absorbance measurement that were done every two hours during seven days. The experiment was repeated twice. The MIC was taken as the lowest compound concentration with no growth at the end of the experiment.

[2] = system: Xanthomonas axonopodis pv. vesicatoria 2133–2; assay type: cell-based; conditions: TSB, 25°C, 48 h, OD 600 nm; tested at 3.1, 6.2, 12.5, 25, 50 μM; three replicates, experiment repeated twice; MIC = lowest concentration with no growth
Description: (§3) The following plant pathogenic bacterial strains were used: Erwinia amylovora PMV6076 (Institut National de la Recherche Agronomique, Angers, France), Pseudomonas syringae pv. syringae EPS94 (Institut de Tecnologia Agroalimentària, Universitat de Girona, Spain) and Xanthomonas axonopodis pv. vesicatoria 2133–2 (Instituto Valenciano de Investigaciones Agrarias, Valencia, Spain). All bacteria were stored in Luria Bertani (LB) broth supplemented with glycerol (20%) and maintained at -80°C. Bacteria were scrapped from LB agar after growing for 24–48 h at 25°C. The cell material was suspended in sterile water to obtain a suspension of 10^8 CFU mL^-1.
as §1, §2

[3] = system: Pseudomonas syringae pv. syringae EPS94; assay type: cell-based; conditions: 48 h
Description: as §3, §1, §2

[4] = system: erythrocyte suspensions of horse blood; conditions: horse erythrocytes 5% vol/vol, TRIS buffer pH 7.2, 1 h at 37°C, absorbance 540 nm, relative to melittin 100 μM, ± confidence interval (α = 0.05); for Hemolysis (%) 150 µM: 150 µM peptide; for Hemolysis (%) 250 µM: 250 µM peptide;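 for all read-outs here: Read-out is hemoglobin release into the supernatant, with a buffer-only blank subtracted as the 0% baseline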
Description: Blood was centrifuged at 6000g for 5 min, washed three times with TRIS buffer (10 mM TRIS, 150 mM NaCl, pH 7.2) and diluted.
Compounds were solubilized in TRIS buffer and mixed with horse erythrocytes and the final concentrations tested were 250 and 150 μM. The mixture was incubated under continuous shaking for 1 h at 37°C. Then, the tubes were centrifuged at 3500g for 10 min, 80 μL aliquots of the supernatant transferred to 100-well microplates (Bioscreen), diluted with 80 μL water, and the absorbance measured at 540 nm (Bioscreen). Complete hemolysis was obtained by the addition of melittin at 100 μM (Sigma-Aldrich Corporation, Madrid, Spain). The percentage of hemolysis (H) was calculated using the equation: H = 100×[(Op−Ob)/(Om−Ob)], where Op was the density for a given compound concentration, Ob for the buffer, and Om for the melittin positive control.

[5] = system: Erwinia amylovora PMV6076; assay: MIC, in vitro growth inhibition; assay type: cell-based; conditions: TSB, 25°C, 48 h, OD 600 nm; tested at 3.1, 6.2, 12.5, 25, 50 μM; three replicates, experiment repeated twice; MIC = lowest concentration with no growth
Description: as §3, §1, §2

[6] = PDB with 0.003% chloramphenicol, 20°C, seven days, OD 600 nm, tested at 3.1, 6.2, 12.5, 25, 50 μM, three replicates, repeated twice

SMILES | MIC Fo [1, 6] | MIC Xav [2] | MIC Pss [3] | Hemolysis (%) 150 µM [4] | Hemolysis (%) 250 µM [4] | MIC Ea [5] | MIC Fo [1]
CCCCCC(=O)NCCCC[C@H]1NC(=O)[C@H](CCCCN)NC(=O)[C@H](CCC(N)=O)NC(=O)[C@H](CC(C)C)NC(=O)[C@H](CCCCN)NC(=O)[C@H](CCCCN)NC(=O)[C@H](Cc2ccccc2)NC(=O)[C@H](CCCCN)NC(=O)[C@H](CCCCN)NC(=O)[C@H](CC(C)C)NC1=O [BPC678] (cyclo(FKKLQK[dK](Hexanoyl)LKK)) | 3.1 to 6.2 µM | 6.2 to 12.5 µM | 12.5 to 25 µM | 68 ± 3% | 73 ± 4% | 25 to 50 µM | –
CCCCCC(=O)NCCCC[C@@H]1NC(=O)[C@H](CCCCN)NC(=O)[C@H](CCC(N)=O)NC(=O)[C@H](CC(C)C)NC(=O)[C@H](CCCCN)NC(=O)[C@H](CCCCN)NC(=O)[C@@H](Cc2ccccc2)NC(=O)[C@H](CCCCN)NC(=O)[C@H](CCCCN)NC(=O)[C@H](CC(C)C)NC1=O [BPC680, c(KK(CO-nC5H11)LKKfKKLQ)] (cyclo(KK(Hexanoyl)LKK[dF]KKLQ)) | 3.1 to 6.2 µM | 12.5 to 25 µM | 25 to 50 µM | 77 ± 2% | 81 ± 4% | 25 to 50 µM | –
CCCCCC(=O)NCCCC[C@@H]1NC(=O)[C@H](CCCCN)NC(=O)[C@H](CCC(N)=O)NC(=O)[C@H](CC(C)C)NC(=O)[C@H](CCCCN)NC(=O)[C@H](CCCCN)NC(=O)[C@H](Cc2c[nH]cn2)NC(=O)[C@H](CCCCN)NC(=O)[C@H](CCCCN)NC(=O)[C@H](CC(C)C)NC1=O [BPC682] (cyclo(HKKLQKK(Hexanoyl)LKK)) | 3.1 to 6.2 µM | 12.5 to 25 µM | 12.5 to 25 µM | 20 ± 3% | 27 ± 1% | 25 to 50 µM | –
CCCCCC(=O)NCCCC[C@H]1NC(=O)[C@H](CCC(N)=O)NC(=O)[C@H](CC(C)C)NC(=O)[C@H](CCCCN)NC(=O)[C@H](CCCCN)NC(=O)[C@H](Cc2ccccc2)NC(=O)[C@H](CCCCN)NC(=O)[C@H](CCCCN)NC(=O)[C@H](CC(C)C)NC(=O)[C@H](CCCCN)NC1=O [BPC684] (cyclo(FKKLQ[dK](Hexanoyl)KLKK)) | 6.2 to 12.5 µM | 6.2 to 12.5 µM | 12.5 to 25 µM | 8 ± 1% | – | 25 to 50 µM | –
CCCC(=O)NCCCC[C@H]1NC(=O)[C@H](CCCCN)NC(=O)[C@H](CCC(N)=O)NC(=O)[C@H](CC(C)C)NC(=O)[C@H](CCCCN)NC(=O)[C@H](CCCCN)NC(=O)[C@H](Cc2ccccc2)NC(=O)[C@H](CCCCN)NC(=O)[C@H](CCCCN)NC(=O)[C@H](CC(C)C)NC1=O [BPC704] (cyclo(FKKLQK[dK](Butyryl)LKK)) | 12.5 to 25 µM | 6.2 to 12.5 µM | 6.2 to 12.5 µM | 9 ± 1% | 16 ± 2% | 25 to 50 µM | –
CCCC(=O)NCCCC[C@@H]1NC(=O)[C@H](CCC(N)=O)NC(=O)[C@H](CC(C)C)NC(=O)[C@H](CCCCN)NC(=O)[C@H](CCCCN)NC(=O)[C@H](Cc2ccccc2)NC(=O)[C@H](CCCCN)NC(=O)[C@H](CCCCN)NC(=O)[C@H](CC(C)C)NC(=O)[C@H](CCCCN)NC1=O [BPC710] (cyclo(FKKLQK(Butyryl)KLKK)) | <3.1 µM | 3.1 to 6.2 µM | 12.5 to 25 µM | 7 ± 1% | – | 25 to 50 µM | –
CCCC(=O)NCCCC[C@@H]1NC(=O)[C@H](CCCCN)NC(=O)[C@H](CC(C)C)NC(=O)[C@H](CCCCN)NC(=O)[C@H](CCCCN)NC(=O)[C@H](CCC(N)=O)NC(=O)[C@H](CC(C)C)NC(=O)[C@H](CCCCN)NC(=O)[C@H](CCCCN)NC(=O)[C@@H](Cc2ccccc2)NC1=O [BPC712, c(KKLKK(CO-C3H7)fKKLQ)] (cyclo(KKLKK(Butyryl)[dF]KKLQ)) | 3.1 to 6.2 µM | 3.1 to 12.5 µM and 3.1 to 6.2 µM | 12.5 to 25 µM | 30 ± 4% | 38 ± 7% | 25 to 50 µM | 3.1 to 6.2 µM
CCCC(=O)NCCCC[C@@H]1NC(=O)[C@H](CCC(N)=O)NC(=O)[C@H](CC(C)C)NC(=O)[C@H](CCCCN)NC(=O)[C@H](CCCCN)NC(=O)[C@@H](Cc2ccccc2)NC(=O)[C@H](CCCCN)NC(=O)[C@H](CCCCN)NC(=O)[C@H](CC(C)C)NC(=O)[C@H](CCCCN)NC1=O [BPC716, c(K(CO-C3H7)KLKKfKKLQ)] (cyclo(K(Butyryl)KLKK[dF]KKLQ)) | 3.1 to 6.2 µM | 25 to 50 µM | 12.5 to 25 µM | 2 ± 1% | 4 ± 0.5% | 25 to 50 µM | –
CCCC(=O)NCCCC[C@@H]1NC(=O)[C@H](CCCCN)NC(=O)[C@H](CC(C)C)NC(=O)[C@H](CCCCN)NC(=O)[C@H](CCCCN)NC(=O)[C@H](CCC(N)=O)NC(=O)[C@H](CC(C)C)NC(=O)[C@H](CCCCN)NC(=O)[C@H](CCCCN)NC(=O)[C@H](Cc2c[nH]cn2)NC1=O [BPC718, c(KKLKK(CO-C3H7)HKKLQ)] (cyclo(HKKLQKKLKK(Butyryl))) | 6.2 to 12.5 µM | 12.5 to 25 µM | 12.5 to 25 µM | 3 ± 1% | 4 ± 1% | >50 µM | –
CCCC(=O)NCCCC[C@@H]1NC(=O)[C@H](CCCCN)NC(=O)[C@H](CCC(N)=O)NC(=O)[C@H](CC(C)C)NC(=O)[C@H](CCCCN)NC(=O)[C@H](CCCCN)NC(=O)[C@H](Cc2c[nH]cn2)NC(=O)[C@H](CCCCN)NC(=O)[C@H](CCCCN)NC(=O)[C@H](CC(C)C)NC1=O [BPC720] (cyclo(HKKLQKK(Butyryl)LKK)) | <3.1 µM | 12.5 to 25 µM | 12.5 to 25 µM | 3 ± 1% | 4 ± 1% | >50 µM | –
CCCC(=O)NCCCC[C@@H]1NC(=O)[C@H](CCC(N)=O)NC(=O)[C@H](CC(C)C)NC(=O)[C@H](CCCCN)NC(=O)[C@H](CCCCN)NC(=O)[C@H](Cc2c[nH]cn2)NC(=O)[C@H](CCCCN)NC(=O)[C@H](CCCCN)NC(=O)[C@H](CC(C)C)NC(=O)[C@H](CCCCN)NC1=O [BPC722] (cyclo(HKKLQK(Butyryl)KLKK)) | 3.1 to 6.2 µM | 25 to 50 µM | >50 µM | 3 ± 0.2% | 3 ± 0.1% | >50 µM | –
